From BindingDB's records for doi:10.1021/acschembio.6b00677 (Pfizer, 2016)

What was measured:
Experiment in all cases: TR-FRET Competition Assay
Conditions in all cases: pH 7.5
[1] = biological target: Tyrosine-protein kinase Blk (Homo sapiens, UniProt P51451)
Procedure: (§1) Assay buffer was 20 mM HEPES, pH 7.5, 10 mM MgCl2, 0.01% BSA, 1 mM DTT, 0.0005% Tween 20, and 2% DMSO. […] The assays were read using an EnVi

[2] = biological target: T1, Tyrosine-protein kinase TXK (Homo sapiens, UniProt P42681)
T1 sequence (P42681 whole entry): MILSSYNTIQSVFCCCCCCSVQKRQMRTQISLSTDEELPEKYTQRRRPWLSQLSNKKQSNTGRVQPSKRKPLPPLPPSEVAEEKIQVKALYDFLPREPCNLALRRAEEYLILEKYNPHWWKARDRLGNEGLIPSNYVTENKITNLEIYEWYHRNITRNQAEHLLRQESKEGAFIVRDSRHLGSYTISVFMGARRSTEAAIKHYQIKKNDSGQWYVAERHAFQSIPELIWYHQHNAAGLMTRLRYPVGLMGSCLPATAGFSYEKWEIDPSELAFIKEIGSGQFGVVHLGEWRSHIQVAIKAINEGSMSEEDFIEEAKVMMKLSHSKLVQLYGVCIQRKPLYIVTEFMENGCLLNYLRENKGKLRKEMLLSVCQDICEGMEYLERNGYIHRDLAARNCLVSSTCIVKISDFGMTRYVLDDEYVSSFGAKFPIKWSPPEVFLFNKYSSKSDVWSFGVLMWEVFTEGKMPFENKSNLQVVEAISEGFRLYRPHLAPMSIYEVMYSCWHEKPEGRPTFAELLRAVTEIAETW
Procedure: as §1

[3] = biological target: T2, Tyrosine-protein kinase Tec (Homo sapiens, UniProt P42680)
T2 sequence (P42680 whole entry): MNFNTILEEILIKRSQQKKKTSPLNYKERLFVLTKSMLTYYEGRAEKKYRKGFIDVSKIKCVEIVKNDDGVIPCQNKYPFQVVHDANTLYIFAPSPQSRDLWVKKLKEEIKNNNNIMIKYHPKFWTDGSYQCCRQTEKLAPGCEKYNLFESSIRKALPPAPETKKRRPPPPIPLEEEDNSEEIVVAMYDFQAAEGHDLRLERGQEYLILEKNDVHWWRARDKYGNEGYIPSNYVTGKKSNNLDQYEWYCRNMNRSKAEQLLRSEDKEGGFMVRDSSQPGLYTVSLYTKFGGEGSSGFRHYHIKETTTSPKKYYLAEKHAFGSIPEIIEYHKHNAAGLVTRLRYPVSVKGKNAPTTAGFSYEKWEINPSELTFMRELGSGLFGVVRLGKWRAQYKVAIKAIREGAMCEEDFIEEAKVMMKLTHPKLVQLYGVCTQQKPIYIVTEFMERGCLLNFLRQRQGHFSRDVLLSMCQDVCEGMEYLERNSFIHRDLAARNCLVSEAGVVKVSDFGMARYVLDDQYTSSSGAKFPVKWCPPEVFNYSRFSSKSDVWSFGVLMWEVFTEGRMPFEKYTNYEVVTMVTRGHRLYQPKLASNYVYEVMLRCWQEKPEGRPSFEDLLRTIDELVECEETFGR
Procedure: as §1

Tyrosine-protein kinase Blk, sequence (P51451 whole entry): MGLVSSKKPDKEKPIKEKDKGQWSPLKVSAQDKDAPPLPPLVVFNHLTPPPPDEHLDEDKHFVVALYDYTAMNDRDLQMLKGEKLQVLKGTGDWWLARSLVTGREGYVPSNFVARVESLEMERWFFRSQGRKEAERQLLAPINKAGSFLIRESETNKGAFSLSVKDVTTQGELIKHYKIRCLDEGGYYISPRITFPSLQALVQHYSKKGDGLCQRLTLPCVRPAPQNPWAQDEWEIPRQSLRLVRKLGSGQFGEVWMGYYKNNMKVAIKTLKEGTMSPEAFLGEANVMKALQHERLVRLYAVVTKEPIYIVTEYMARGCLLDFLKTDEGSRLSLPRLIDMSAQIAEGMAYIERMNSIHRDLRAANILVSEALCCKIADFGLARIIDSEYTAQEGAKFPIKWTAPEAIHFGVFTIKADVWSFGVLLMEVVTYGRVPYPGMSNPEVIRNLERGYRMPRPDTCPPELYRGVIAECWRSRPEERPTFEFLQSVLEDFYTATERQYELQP

- Ki [1]: 32.4 nM
- Ki [2]: 0.131 nM
- Ki [3]: 0.679 nM
SMILES: C=CC(=O)N1C[C@H](Nc2ncnc3[nH]ccc23)CC[C@@H]1C [PF-06651600]
